According to PubChem BioAssay AID1918954 (Molecular Pharmacology Branch, DTP, NCI, 2023):

Test system: MDA-MB-468 complex spheroids with HUVEC/MSC, viability
Assay: Anticancer human tumor MDA-MB-468 cell line growth inhibition;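 further: spheroids exposed to agents for seven days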;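 on viability, T/C: 100% = DMSO vehicle control viability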
Conditions: for IC50: curve of first compound; for viability, T/C: stronger effect = lower value
Summary of the method: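 Multicellular complex spheroids of tumor cells with human endothelial cells (HUVEC) and mesenchymal stem cells; the LSD1 inhibitor iadademstat was combined with standard-of-care or investigational agents. Top concentration at or near clinical Cmax, half-log dilutions; final DMSO ≤0.25%.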

SMILES: CCN(c1cc(-c2ccc(CN3CCOCC3)cc2)cc(C(=O)NCc2c(C)cc(C)[nH]c2=O)c1C)C1CCOCC1 + NC1CCC(NC2CC2c2ccccc2)CC1
- IC50 (second compound 0.1 µM): > 3000 nM
- IC50 (second compound 0.316 µM): > 3000 nM
- IC50 (second compound 1 µM): > 3000 nM
- IC50 (second compound 3.16 µM): > 3000 nM
- IC50 (second compound 10 µM): > 3000 nM
- viability, T/C (second compound 0.1 µM, first compound 0.00949 µM): 107%
- viability, T/C (second compound 0.1 µM, first compound 0.03 µM): 96%
- viability, T/C (second compound 0.1 µM, first compound 0.0949 µM): 100%
- viability, T/C (second compound 0.1 µM, first compound 0.3 µM): 88.1%
- viability, T/C (second compound 0.1 µM, first compound 0.949 µM): 85.5%
- viability, T/C (second compound 0.1 µM, first compound 3 µM): 83%
- viability, T/C (second compound 0.316 µM, first compound 0.00949 µM): 99.7%
- viability, T/C (second compound 0.316 µM, first compound 0.03 µM): 102%
- viability, T/C (second compound 0.316 µM, first compound 0.0949 µM): 96.7%
- viability, T/C (second compound 0.316 µM, first compound 0.3 µM): 102%
- viability, T/C (second compound 0.316 µM, first compound 0.949 µM): 88.6%
- viability, T/C (second compound 0.316 µM, first compound 3 µM): 91.9%
- viability, T/C (second compound 1 µM, first compound 0.00949 µM): 87%
- viability, T/C (second compound 1 µM, first compound 0.03 µM): 92.3%
- viability, T/C (second compound 1 µM, first compound 0.0949 µM): 95.7%
- viability, T/C (second compound 1 µM, first compound 0.3 µM): 87.4%
- viability, T/C (second compound 1 µM, first compound 0.949 µM): 86%
- viability, T/C (second compound 1 µM, first compound 3 µM): 74.9%
- viability, T/C (second compound 3.16 µM, first compound 0.00949 µM): 86.3%
- viability, T/C (second compound 3.16 µM, first compound 0.03 µM): 76.8%
- viability, T/C (second compound 3.16 µM, first compound 0.0949 µM): 97.8%
- viability, T/C (second compound 3.16 µM, first compound 0.3 µM): 99.9%
- viability, T/C (second compound 3.16 µM, first compound 0.949 µM): 77.4%
- viability, T/C (second compound 3.16 µM, first compound 3 µM): 88.5%
- viability, T/C (second compound 10 µM, first compound 0.00949 µM): 67.2%
- viability, T/C (second compound 10 µM, first compound 0.03 µM): 72.2%
- viability, T/C (second compound 10 µM, first compound 0.0949 µM): 66.8%
- viability, T/C (second compound 10 µM, first compound 0.3 µM): 74.5%
- viability, T/C (second compound 10 µM, first compound 0.949 µM): 75.8%
- viability, T/C (second compound 10 µM, first compound 3 µM): 63.4%

SMILES: COc1ccc([C@@H](O)c2cc(-c3ncnc4cc(N5CCOCC5)ccc34)c(F)cc2Cl)nn1 + NC1CCC(NC2CC2c2ccccc2)CC1
- IC50 (second compound 0.1 µM): 1070 nM
- IC50 (second compound 0.316 µM): 1160 nM
- IC50 (second compound 1 µM): 817 nM
- IC50 (second compound 3.16 µM): 832 nM
- IC50 (second compound 10 µM): 1340 nM
- viability, T/C (second compound 0.1 µM, first compound 0.0316 µM): 97.8%
- viability, T/C (second compound 0.1 µM, first compound 0.1 µM): 83.5%
- viability, T/C (second compound 0.1 µM, first compound 0.316 µM): 68%
- viability, T/C (second compound 0.1 µM, first compound 1 µM): 50%
- viability, T/C (second compound 0.1 µM, first compound 3.16 µM): 35%
- viability, T/C (second compound 0.1 µM, first compound 10 µM): 12.8%
- viability, T/C (second compound 0.316 µM, first compound 0.0316 µM): 101%
- viability, T/C (second compound 0.316 µM, first compound 0.1 µM): 83.7%
- viability, T/C (second compound 0.316 µM, first compound 0.316 µM): 71.7%
- viability, T/C (second compound 0.316 µM, first compound 1 µM): 52.3%
- viability, T/C (second compound 0.316 µM, first compound 3.16 µM): 33.6%
- viability, T/C (second compound 0.316 µM, first compound 10 µM): 13.1%
- viability, T/C (second compound 1 µM, first compound 0.0316 µM): 90.5%
- viability, T/C (second compound 1 µM, first compound 0.1 µM): 86.9%
- viability, T/C (second compound 1 µM, first compound 0.316 µM): 58.3%
- viability, T/C (second compound 1 µM, first compound 1 µM): 45.9%
- viability, T/C (second compound 1 µM, first compound 3.16 µM): 33.9%
- viability, T/C (second compound 1 µM, first compound 10 µM): 12.5%
- viability, T/C (second compound 3.16 µM, first compound 0.0316 µM): 100%
- viability, T/C (second compound 3.16 µM, first compound 0.1 µM): 64.9%
- viability, T/C (second compound 3.16 µM, first compound 0.316 µM): 61.7%
- viability, T/C (second compound 3.16 µM, first compound 1 µM): 55.4%
- viability, T/C (second compound 3.16 µM, first compound 3.16 µM): 33.2%
- viability, T/C (second compound 3.16 µM, first compound 10 µM): 15.6%
- viability, T/C (second compound 10 µM, first compound 0.0316 µM): 51.3%
- viability, T/C (second compound 10 µM, first compound 0.1 µM): 58.3%
- viability, T/C (second compound 10 µM, first compound 0.316 µM): 57.5%
- viability, T/C (second compound 10 µM, first compound 1 µM): 55%
- viability, T/C (second compound 10 µM, first compound 3.16 µM): 35.2%
- viability, T/C (second compound 10 µM, first compound 10 µM): 12.7%
